Source: patent US11497740B2, “Use of Jumonji C demethylase inhibitors for the treatment and prevention of chemotherapy resistance and radioresistance in cancer” (THE BOARD OF REGENTS OF THE UNIVERSITY OF TEXAS SYSTEM, priority 2016, dated 2022)

What was measured:
[1] = system: H1355 T16; assay: MTS cell viability assay, H1355 T16 resistant variant vs H1355 Parental; type: cell-based, human; conditions: H1355 T16 vs H1355 Parental
Experimental: (§1) NSCLC lines were treated with paclitaxel+carboplatin combination, given in a ˜2:3 wt/wt ratio, to mirror the clinical dosage values of ˜225 mg/m2 and ˜330 mg/m2, paclitaxel and carboplatin respectively. Note that considering the molecular weights of the two drugs, this translates to approximately a 1 to 3.4 molar ratio. Drugs were given in cycles, following a drug on/drug off treatment scheme. Each cycle consisted of 4-5 days of drug treatment and drug-free culturing for about 1-2 weeks or more to allow the surviving cells to repopulate the plate. […] Untreated parental cells were simultaneously maintained at all times for comparison. Cell viability was assessed in 96-well plates using standard MTS assays (Promega). Treatment duration in MTS assays was 4 days. Drugs were tested in two- or four-fold serial dilutions, totaling 8 different drug concentrations, with 8 replicates per concentration. Response was validated in multiple replicate plates (n≥3).
(§2) Cell viability was assessed by standard MTS assays using Promega's CellTiter reagents. Eight drug concentrations given as two- or four-fold dilutions were tested for each chemotherapeutic agent. In addition, each experiment contained eight replicates per concentration and the entire assay was performed in multiple replicates (n≥3).

[2] = system: HCC4017 T5; assay: MTS cell viability assay, HCC4017 T5 resistant variant vs parental; type: cell-based, human; conditions: HCC4017 T5 vs parental
Experimental: as §1, §2

[3] = system: H1299 T18 chemo-resistant cells; assay: Colony formation, combination with paclitaxel+carboplatin; type: cell-based, human; conditions: positive ΔBliss
Experimental: All statistical tests including two-way ANOVA with Sidak's multiple comparisons test, one-way ANOVA with Dunnett's multiple comparisontest, post-test for linear trend and unpaired t-tests were performed using GraphPad Prism 6.00. P values are represented as *P<0.05, **P<0.01, ***P<0.001 and ****P<0.0001. For drug treatments, dose response curves and IC50 values were calculated using GraphPad Prism or in-house DIVISA (Database of InVItro Sensitivity Assays; L. Girard). For drug combination in colony formation, delta Bliss excess was calculated as shown previously (Wilson et al., 2014). Bliss expectation was calculated as A+B−(A×B), where A and B denote the fractional responses from drugs A and B given individually. The difference between Bliss expectation and observed response from combination of drugs A and B at the same doses is the delta Bliss excess.
400 cells were seeded per well in six well plates and treated with various drug concentrations the next day. After 2-3 weeks, colonies were stained with 0.5% crystal violet, 3% formaldehyde solution and counted both manually and automatically using Quantity One image analysis software (Bio-Rad).

[4] = system: A549; assay: Clonogenic survival with ionizing radiation, A549; type: cell-based, Human; conditions: 25 nM JIB-04; for radiosensitization (clonogenic survival): drug 4 h before IR
Experimental: (§3) Cells were serially diluted to appropriate concentrations and plated into 60-mm dish in triplicate for 4 h. Then cells were treated with the indicated drugs, and irradiated 4 hours later with graded doses of radiation for concurrent treatment or irradiated and 4 hours later the drugs added for post-treatment. All cells were irradiated at room temperature in ambient air using a 137Cs source (Mark 1-68 irradiator, JL Shepherd & Associated). Surviving colonies were stained with crystal violet approximately 10 to 14 days later and colonies formed with more than 50 cells were counted. Clonogenic fraction of irradiated cells was normalized to the plating efficiency of unirradiated controls. The data are presented as the mean±SD. The curve S=e^−(αD+βD2) was fitted to the experimental data using a least square fit algorithm using the program Sigma Plot 11.0 (Systat Software, Inc.).

[5] = system: immortalized normal human bronchial epithelial cells HBEC3KT and HBEC30KT; assay: Clonogenic survival with IR, normal bronchial epithelial cells; type: cell-based; conditions: IC50 doses of JIB-04, 4 h prior to radiation
Experimental: as §3
To evaluate whether the effect of JIB-04 on DNA repair dynamics described above was cancer-selective, IC50 doses of JIB-04 in colony formation assays of immortalized normal human bronchial epithelial cells HBEC3KT and HBEC30KT were calculated (FIG. 27A). Then these doses of JIB-04 were used to pretreat cells 4 h prior to radiation and survival was measured. […]

[6] = system: non-homologous end joining (NHEJ); assay: Green fluorescent protein NHEJ reporter assay, H1299; type: cell-based, Human; conditions: H1299 cells with integrated construct
Experimental: The green fluorescent protein assay was performed as described by Seluanov et al. To generate reporter cell lines 2 million H1299 cells were transfected with 0.5 μg of linearized NHEJ-I, or HR reporter constructs using the Amaxa Nucleofector; program X-005. G418, at 1 mg/ml, was added to the media 1 day post-transfection. Then Transient expression of the I-SceI endonuclease was used to generate a DNA DSB at the integrated GFP gene sequences. Briefly, H1299 cells containing the NHEJ or the HR constructs treated by 4 h with JIB-04 or DMSO were transfected with the pCMV3xnls-I-SceI (5 μg, functional endonuclease) and a pN1-mCherry plasmid (0.05 μg) as transfection control as previously stated. For the analysis of NHEJ and HR cells were harvested, resuspended in ˜1 ml 1×PBS, put on ice, and run on a BD FACScan instrument. GFP and mCherry fluorescence was analyzed using FlowJo software. Red-versus-green was plotted and DNA repair efficiency was calculated from the number of GFP-positive cells divided by the number of cells mCherry-positive cells.

Row | SMILES | sensitivity of resistant variant compared to parental cells [1] | H1355 T16 SR (Selectivity Ratio) ([1]; SR = [IC50 of Parental]/[IC50 of Resistant]) | fold increased sensitivity vs parental [2] [fold] | colony formation in combination with paclitaxel+carboplatin [3] | radiosensitization, JIB-04 before IR vs 4 h post-irradiation [4] | radiosensitization (clonogenic survival) [4] | radiosensitization (clonogenic survival) [5] | NHEJ repair efficiency [6]
1 | Clc1ccc(N/N=C(\c2ccccc2)c2ccccn2)nc1 [JIB-04] | higher sensitivity | 2.8 | ~3 | synergistic inhibition of colony formation | significantly more robust when administering JIB-04 first | had a radiosensitization/radioenhancement effect | did not radiosensitize | ≤ 50 % of normal levels
2 | CCOC(=O)CCNc1cc(N2CCc3ccccc3CC2)nc(-c2ccccn2)n1 [GSK-J4] | higher sensitivity |  |  | synergistic inhibition of colony formation |  | failed to radiosensitize |  | 
